Some test systems named below: K-562 leukemia; OVCAR-4 ovarian; HCT-116 colon; MDA-MB-435; SNB-75 CNS; HL-60(TB) leukemia; IGROV1 ovarian; 786-0 renal; COLO 205 colon; RPMI-8226 leukemia.
Common to all, as to experiment: inhibition of tumour cell growth, NCI panel, 48 h

Where “and” joins values, the source holds several entries; their conditions need not be identical. Equal entries are not always repeated.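 These data come from cells grown in 96-well plates and exposed to compound for 48 hours at five concentrations. Abbreviation: GI50, concentration required for 50% inhibition of growth. TGI denotes the concentration required for complete inhibition of growth.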

For the compound `CC(C)[C@@H]1C=C2CC[C@H]3[C@](C)(CN)CCC[C@]3(C)[C@H]2CC1`, the GI50 in the assay with K-562 leukemia is 1.96 µM; in the assay on OVCAR-4 ovarian, 15.1 µM; in the assay on HCT-116 colon, 1.77 µM; with MDA-MB-435, 1.98 µM; in the assay on SNB-75 CNS, 14.8 µM; in the assay on HL-60(TB) leukemia it was 1.38 µM. In addition, the GI50 was 1.93 µM in the assay with IGROV1 ovarian, 2.02 µM in the assay with 786-0 renal, 1.7 µM in the assay with COLO 205 colon and 2.57 µM in the assay on RPMI-8226 leukemia. In addition, the TGI came out at 4.36 µM in the assay with K-562 leukemia; 34.3 µM in the assay with OVCAR-4 ovarian; 3.18 µM in the assay on HCT-116 colon; 4.2 µM in the assay with MDA-MB-435; 28.8 µM with SNB-75 CNS; 4.39 µM with HL-60(TB) leukemia. Further, the TGI in the assay on IGROV1 ovarian was 4.09 µM; in the assay on 786-0 renal, 4.1 µM; with COLO 205 colon, 3.17 µM; in the assay with RPMI-8226 leukemia, 11.7 µM.
On to `O=C1NC(=NC(CO)Cc2ccccc2)S/C1=C\c1ccc2ncccc2c1` (centres undefined), for which the GI50 with K-562 leukemia was 11.2 µM and 3.48 µM; with OVCAR-4 ovarian, > 21.4 µM and 4.17 µM; in the assay on HCT-116 colon it was 9.89 µM and 1.13 µM; in the assay with MDA-MB-435, 6.21 µM and 2.54 µM; in the assay on SNB-75 CNS it was 10.8 µM and 1.77 µM; with HL-60(TB) leukemia it was 9.76 µM and 3.88 µM. In addition, the GI50 with IGROV1 ovarian was 12.8 µM and 2.08 µM; with 786-0 renal it was > 25 µM and 6.96 µM; in the assay on COLO 205 colon, 9.23 µM and 1.86 µM; in the assay on RPMI-8226 leukemia it was > 18.4 µM and 2.33 µM. Further, the TGI in the assay on K-562 leukemia is greater than 25 µM; with OVCAR-4 ovarian it was greater than 25 µM; with HCT-116 colon it was greater than 25 µM; with MDA-MB-435, greater than 25 µM; with SNB-75 CNS, greater than 25 µM; in the assay with HL-60(TB) leukemia, > 25 µM and 14.3 µM. For the same compound, the TGI was greater than 25 µM with IGROV1 ovarian; greater than 25 µM with 786-0 renal; greater than 25 µM with COLO 205 colon; > 25 µM and 12.1 µM in the assay on RPMI-8226 leukemia.
Regarding `CN(C)c1cc(NN=C(c2ccc(O)cc2)c2ccc(O)cc2)c([N+](=O)[O-])cc1[N+](=O)[O-]`, the GI50 with K-562 leukemia is 3.61 µM; in the assay with OVCAR-4 ovarian, 5.77 µM; in the assay with HCT-116 colon, 5.14 µM; with MDA-MB-435 it was 3.02 µM; in the assay with SNB-75 CNS, 10.4 µM; with HL-60(TB) leukemia, 4.98 µM. Further, the GI50 in the assay with IGROV1 ovarian was 7.16 µM; in the assay with 786-0 renal, 10.9 µM; in the assay on COLO 205 colon it was 8.52 µM; in the assay on RPMI-8226 leukemia, 3.34 µM. Also, the TGI was greater than 100 µM with K-562 leukemia; 28 µM with OVCAR-4 ovarian; 21.1 µM in the assay on HCT-116 colon; 14.3 µM in the assay on MDA-MB-435; 25 µM in the assay on SNB-75 CNS; 55.8 µM in the assay with HL-60(TB) leukemia. The TGI was found to be 24.8 µM in the assay on IGROV1 ovarian, 25.1 µM in the assay on 786-0 renal, 24.7 µM with COLO 205 colon and 27.2 µM in the assay with RPMI-8226 leukemia.
Turning to `O=C(CCCSc1nc(-c2ccccc2)cc(-c2ccccc2)n1)NO`, the GI50 was 0.983 µM with K-562 leukemia; 1.67 µM with OVCAR-4 ovarian; 0.657 µM with HCT-116 colon; 2.05 µM in the assay on MDA-MB-435; 1.68 µM in the assay on SNB-75 CNS; 2.48 µM in the assay on HL-60(TB) leukemia. Further, the GI50 in the assay on IGROV1 ovarian is 1.5 µM; in the assay with 786-0 renal, 0.585 µM; with COLO 205 colon it was 1.86 µM; in the assay with RPMI-8226 leukemia, 0.808 µM. For the same compound, the TGI came out at 18.9 µM with K-562 leukemia; 14.9 µM in the assay on OVCAR-4 ovarian; 11.7 µM with HCT-116 colon; 10.1 µM with MDA-MB-435; 9.55 µM with SNB-75 CNS; 6.39 µM with HL-60(TB) leukemia. Also, the TGI came to 9.13 µM with IGROV1 ovarian, 4.34 µM in the assay with 786-0 renal, 5.1 µM in the assay with COLO 205 colon and 9.38 µM in the assay with RPMI-8226 leukemia.
For the compound `Nc1n[nH]c2cccc(C#Cc3cccc(C(=O)Nc4ccc(CN5CCOCC5)c(C(F)(F)F)c4)c3)c12`, the GI50 is 0.0233 µM in the assay with K-562 leukemia; 2.15 µM with OVCAR-4 ovarian; 1.53 µM with HCT-116 colon; 2.22 µM with MDA-MB-435; 3.21 µM with SNB-75 CNS; 1.17 µM in the assay on HL-60(TB) leukemia. Besides, the GI50 is 2.35 µM in the assay with IGROV1 ovarian, 2.79 µM with 786-0 renal, 1.35 µM with COLO 205 colon and 1.76 µM with RPMI-8226 leukemia. Further, the TGI in the assay with K-562 leukemia is greater than 100 µM; in the assay with OVCAR-4 ovarian, 6.88 µM; with HCT-116 colon, 5.2 µM; in the assay on MDA-MB-435, 10.5 µM; with SNB-75 CNS it was 12.8 µM; with HL-60(TB) leukemia, 5 µM. Besides, the TGI stood at 7.01 µM in the assay with IGROV1 ovarian, 7.74 µM in the assay on 786-0 renal, 6.99 µM with COLO 205 colon and 5.62 µM in the assay on RPMI-8226 leukemia.
As to `CCC(=C/[C@H](C)C/C=C/C(C)=C/[C@@H](C)C(=O)[C@@H](C)[C@H](O)[C@@H](C)CC)/C=C/[C@H]1OC(=O)C=C[C@@H]1C`, the GI50 in the assay with K-562 leukemia, with OVCAR-4 ovarian, in the assay with HCT-116 colon, in the assay with MDA-MB-435, in the assay on SNB-75 CNS and in the assay on HL-60(TB) leukemia was less than 0.01 µM each time. Moreover, the GI50 in the assay on IGROV1 ovarian, with 786-0 renal, in the assay with COLO 205 colon and with RPMI-8226 leukemia was less than 0.01 µM in each case. Besides, the TGI was 3.67 µM in the assay on OVCAR-4 ovarian; 0.0106 µM with HCT-116 colon; less than 0.0184 µM in the assay with MDA-MB-435; 0.655 µM in the assay with SNB-75 CNS; 1.77 µM with HL-60(TB) leukemia; 7.67 µM in the assay on IGROV1 ovarian. Also, the TGI with 786-0 renal was less than 0.0219 µM; with COLO 205 colon, 0.345 µM; in the assay with RPMI-8226 leukemia, 1.19 µM.
As for `COc1ccc2nc3cc(Cl)ccc3c(NCCNCC(C)O)c2c1` (centres undefined), the GI50 in the assay on K-562 leukemia was 1.28 µM; with OVCAR-4 ovarian it was 1.57 µM; in the assay with HCT-116 colon it was 0.751 µM; in the assay on MDA-MB-435, 1.51 µM; in the assay with SNB-75 CNS, 1.9 µM; with HL-60(TB) leukemia it was 1.9 µM. Moreover, the GI50 with IGROV1 ovarian was 2.69 µM; in the assay with 786-0 renal, 1.68 µM; with COLO 205 colon, 1.11 µM; with RPMI-8226 leukemia, 2.54 µM. The TGI in the assay with K-562 leukemia was found to be 10 µM; with OVCAR-4 ovarian, 4.8 µM; with HCT-116 colon it was 3.17 µM; in the assay with MDA-MB-435 it was 3.1 µM; in the assay on SNB-75 CNS, 8.71 µM; with HL-60(TB) leukemia, 6.05 µM. For the same compound, the TGI in the assay with IGROV1 ovarian came out at 10.2 µM; in the assay on 786-0 renal it was 5.83 µM; in the assay with COLO 205 colon, 2.79 µM; in the assay with RPMI-8226 leukemia it was 6.36 µM.

Values taken from PubChem BioAssay (NCI).
